{"source": "BindingDB's records for doi:10.3109/14756366.2010.482529", "about": "(Yonsei University, 2010)", "note": "pIC50: −log10 of the molar value.", "data": [{"molecular_target": "T1, Polyphenol oxidase 1 (White button mushroom, UniProt Q00024)", "T1 sequence (Q00024 whole entry)": "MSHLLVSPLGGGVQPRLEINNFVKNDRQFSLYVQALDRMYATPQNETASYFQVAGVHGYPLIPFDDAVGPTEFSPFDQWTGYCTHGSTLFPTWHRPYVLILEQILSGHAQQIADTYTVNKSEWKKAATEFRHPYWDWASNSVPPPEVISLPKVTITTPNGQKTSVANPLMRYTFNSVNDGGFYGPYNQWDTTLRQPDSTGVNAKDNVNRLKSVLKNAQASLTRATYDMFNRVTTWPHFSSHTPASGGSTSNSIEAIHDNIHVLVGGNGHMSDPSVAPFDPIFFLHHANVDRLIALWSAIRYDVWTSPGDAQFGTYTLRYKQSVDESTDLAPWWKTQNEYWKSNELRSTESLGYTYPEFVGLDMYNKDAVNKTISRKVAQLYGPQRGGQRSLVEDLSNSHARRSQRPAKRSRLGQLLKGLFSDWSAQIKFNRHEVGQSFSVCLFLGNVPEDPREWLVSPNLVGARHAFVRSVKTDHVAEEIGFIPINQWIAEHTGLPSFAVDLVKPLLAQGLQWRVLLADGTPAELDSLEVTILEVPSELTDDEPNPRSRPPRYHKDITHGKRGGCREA", "test": "In Vitro Tyrosinase Inhibition Assay", "conditions": "pH 6.8; 25 °C", "experimental": "Tyrosinase inhibition assays were performed in a 96-well microplate format using the SpectraMax 340 microplate reader (Molecular Devices, CA) according to the method developed by Hearing [Khan et al., Pure Appl. […] First the samples were screened for the o-diphenolase inhibitory activity of mushroom tyrosinase (Lyophilised, ≥2000 units/mg, Sigma, […], USA) using L-3,4-dihydroxyphenylalanine (L-DOPA) (Sigma) as substrate. All the active samples from the preliminary screening were subjected to half maximal inhibitory concentration (IC50) studies. The samples were dissolved in methanol/DMSO to a final concentration of 0.5%. […] Then the L-DOPA (0.5 mM) was added to the reaction mixture and the reaction was monitored by measuring the change in absorbance at 475 nm (at 37°C) due to the formation of the DOPA chrome for 10 min.", "values": [{"compound": "N[C@@H](Cn1ccc(=O)c(O)c1)C(=O)O", "pIC50": 5.43}, {"compound": "CC(C)=CCOC(=O)c1ccc(O)cc1", "note": "[3-Methyl-2-butenyl-4-hydroxybenzoate (2)]", "pIC50": 4.83}, {"compound": "CC(C)=CCOC(=O)c1ccccc1", "note": "[3-Methyl-2-butenylbenzoate (1)]", "pIC50": 4.08}, {"compound": "O=C(Oc1ccc([N+](=O)[O-])cc1)c1ccc([N+](=O)[O-])cc1C(F)(F)F", "note": "[4-Nitro-phenyl-(4-nitro-2-trifluoromethyl)-benzoate (6)]", "pIC50": 4.53}, {"compound": "O=C(NCCBr)c1cc([N+](=O)[O-])cc([N+](=O)[O-])c1", "note": "[N-(2-Bromo-ethyl)-3,5-dinitro-benzamide (8)]", "pIC50": 5.51}, {"compound": "O=C(NCCO)c1cc([N+](=O)[O-])cc([N+](=O)[O-])c1", "note": "[N-(2-Hydroxy-ethyl)-3,5-dinitro-benzamide (7)]", "pIC50": 5.96}, {"compound": "CCNC(=O)c1ccccc1", "note": "[N-Ethyl-benzamide (10)]", "pIC50": 4.93}, {"compound": "Cc1ccc(C(=O)N(C)O)cc1", "note": "[N-Hydroxy-4,N-dimethyl-benzamide (9)]", "pIC50": 5.68}]}]}
